Test results as given in patent US5250524A, “Bile acid derivatives, process for their preparation and use of these compounds as pharmaceuticals” (Hoechst Aktiengesellschaft, priority 1990, dated 1993).
Where two headings read alike, the source gives them in different places.

Target: T1, Na^+ -dependent bile acid transport system (Oryctolagus cuniculus, UniProt Q28727)
T1 construct: Preparation of brush-border membrane vesicles from the ileum of rabbits; from tissue; host or cells: brush-border membrane vesicles from the terminal small intestine (ileum) of male New Zealand rabbits
T1 sequence (Q28727 1-347): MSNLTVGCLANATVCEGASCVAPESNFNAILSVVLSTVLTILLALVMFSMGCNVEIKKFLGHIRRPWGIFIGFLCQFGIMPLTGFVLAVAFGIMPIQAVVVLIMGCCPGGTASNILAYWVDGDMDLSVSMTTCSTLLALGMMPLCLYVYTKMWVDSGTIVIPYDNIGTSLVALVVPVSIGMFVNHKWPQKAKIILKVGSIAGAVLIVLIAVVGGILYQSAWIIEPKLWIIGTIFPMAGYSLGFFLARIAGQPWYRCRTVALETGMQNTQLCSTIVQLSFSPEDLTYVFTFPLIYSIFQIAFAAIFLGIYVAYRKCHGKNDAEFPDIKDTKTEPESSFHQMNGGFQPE
Experiment: Inhibition of Na^+ -dependent [^3 H]taurocholate absorption into brush-border membrane vesicles of the ileum
Type: biochemical, rabbit
Conditions: taurocholate 50 μM, pH 7.4, customarily 1 min
Protocol: The pharmacological data include a series of -tests in which the interaction of the compounds according to the invention with the intestinal bile acid transport system was investigated in the terminal small intestine:
1. Preparation of brush-border membrane vesicles from the ileum of rabbits
The preparation of brush-border membrane vesicles from the intestinal cells of the small intestine was carried out using the so-called Mg^2+ precipitation method. Male New Zealand rabbits (2-2.5 kg body weight) were sacrificed by intravenous injection of 0.5 ml of an aqueous solution of 2.5 mg of tetracaine HCl, 100 T 61® and 25 mg of mebezonium iodide. The small intestine was removed and rinsed with ice-cold physiological saline solution. The terminal […] of the small intestine (measured in the oral-rectal direction, i.e. the terminall ileum, which contains the active Na^+ -dependent bile acid transport system) were used for preparation of the brush-border membrane vesicles. The intestines were frozen at -80° C. under nitrogen in plastic bags. The frozen intestines were thawed in a water bath at 30° C. in order to prepare the membrane vesicles. The mucosa was scraped off and suspended in 60 ml of ice-cold 12 mM trio/HCl buffer (pH 7.1)/300 mM mannitol, 5 mM EGTA/10 mg/l of phenylmethylsulfonyl fluoride/1 mg/1 of soybean trypsin inhibitor (32 U/mg)/0.5 mg/l of bovine lung trypsin inhibitor (193 U/mg)/0.5 mg/l of bacitracin. After diluting to 300 ml with ice-cold distilled water, the suspension was homogenized with ice-cooling for 3 minutes at 75% of maximum power using an Ultraturrax (18 rod, IKA Werk Staufen, Federal Republic of Germany). After addition of 3 ml of 1M MgCl2 solution (final Concentration 10 mM), the homogenate was allowed to stand at 0° C. for exactly 1 minute. As a result of addition of Mg^2+, the cell membranes aggregate and precipitate with the exception of the brush-border membranes. After centrifugation at 3,000×g (5,000 rpm, SS-34 rotor) for 15 minutes, the precipitate is discarded and the supernatant which contains the brush-border membranes is centrifuged at 26,700×g (15,000 rpm, SS-34 rotor) for 30 minutes. The supernatant was discarded, and the precipitate was rehomogenized in 60 ml of 12 mM tris/HCl buffer (pH 7.1)/60 mM mannitol, 5 mM EGTA using a Potter Elvejhem homogenizer (Braun Melsungen, 900 rpm, 10 strokes). After addition of 0.1 ml of 1M MgCl2 solution and an incubation time of 15 minutes at 0° C., the mixture was again centrifuged at 3,000×g for 15 minutes. The supernatant was then again centrifuged at […] ( 15,000 rpm, SS-34 rotor) for 30 minutes. The precipitate was taken up in 30 ml of 10 mM tris/hepes buffer (pH 7.4) /300 mM mannitol and homogeneously resuspended by 20 strokes in a Potter Elvejhem homogenizer at 1,000 rpm. After centrifugation at 48,000×g (20,000 rpm, SS-34 rotor) for 30 minutes, the precipitate was taken up in 0.5 to 2 ml of tris/hepes buffer (pH 7.4)/280 mM mannitol (final concentration 20 mg/ml) and resuspended with the aid of a tuberculin syringe using a 27 gauge needle. The vesicles were either used immediately after preparation for transport investigations or stored at -196° C. in liquid nitrogen in 4 mg portions.
2. Inhibition of Na^+ -dependent [^3 H]taurocholate absorption into brush-border membrane vesicles of the ileum
The absorption of substrates into brush-border membrane vesicles was determined by means of the so-called membrane filtration technique. 10 μl of the vesicle suspension (100 μg of protein) were pipetted on the wall of a polystyrene incubation tube (11×70 mm) as a drop which contained the incubation medium together with the corresponding ligands (90 μl). […]

[1] = Na^+ -dependent transport component (difference between absorption in Na-T-B and K-T-B), read-out: IC50 Na
[2] = [^3 H]taurocholate absorption, rabbit ileum brush-border membrane vesicles, read-out: IC50
[3] = IC50, [^3 H]taurocholate absorption, rabbit ileum brush-border membrane vesicles
[4] = IC50 Na, Na^+ -dependent transport component (difference between absorption in Na-T-B and K-T-B)

Compound	IC50 [1] [µM]	IC50 [2] [µM]	IC50 [3] [µM]	IC50 [4] [µM]
COC(=O)CC[C@@H](C)[C@H]1CC[C@H]2[C@@H]3[C@H](O)C[C@@H]4C[C@@H](OCCNC(=O)CCC(=O)NCCO[C@H]5CC[C@@]6(C)[C@@H](C5)C[C@@H](O)[C@@H]5[C@@H]6C[C@H](O)[C@]6(C)[C@@H]([C@H](C)CCC(=O)OC)CC[C@@H]56)CC[C@]4(C)[C@H]3C[C@H](O)[C@]12C [Example 531]	18	> 50		
C[C@H](CCC(=O)NCCO[C@H]1CC[C@@]2(C)[C@@H](C1)C[C@@H](O)[C@@H]1[C@@H]2C[C@H](O)[C@]2(C)[C@@H]([C@H](C)CCC(=O)O)CC[C@@H]12)[C@H]1CC[C@H]2[C@@H]3[C@H](O)C[C@@H]4C[C@H](O)CC[C@]4(C)[C@H]3C[C@H](O)[C@]12C [Example 368]	18	45		
C[C@H](CCC(=O)NCCO[C@H]1CC[C@@]2(C)[C@@H](C1)C[C@@H](O)[C@@H]1[C@@H]2C[C@H](O)[C@]2(C)[C@@H]([C@H](C)CCC(=O)O)CC[C@@H]12)[C@H]1CC[C@H]2[C@@H]3[C@H](O)C[C@@H]4C[C@H](OCc5ccccc5)CC[C@]4(C)[C@H]3C[C@H](O)[C@]12C [Example 369]	20	55		
C[C@H](CCC(=O)NCCCNC(=O)CCC(=O)NCCO[C@H]1CC[C@@]2(C)[C@@H](C1)C[C@@H](O)[C@@H]1[C@@H]2C[C@H](O)[C@]2(C)[C@@H]([C@H](C)CCC(=O)NCCS(=O)(=O)O)CC[C@@H]12)[C@H]1CC[C@H]2[C@@H]3[C@H](O)C[C@@H]4C[C@H](OCc5ccccc5)CC[C@]4(C)[C@H]3C[C@H](O)[C@]12C [172 (taurine conj.)]			32	20
C[C@H](CCC(=O)NCCO[C@H]1CC[C@@]2(C)[C@@H](C1)C[C@@H](O)[C@@H]1[C@@H]2C[C@H](O)[C@]2(C)[C@@H]([C@H](C)CCC(=O)NCC(=O)O)CC[C@@H]12)[C@H]1CC[C@H]2[C@@H]3[C@H](O)C[C@@H]4C[C@H](O)CC[C@]4(C)[C@H]3C[C@H](O)[C@]12C [368 (glycine conj.)]			48	16
C[C@H](CCC(=O)O)[C@H]1CC[C@H]2[C@@H]3[C@H](O)C[C@@H]4C[C@@H](OCCNC(=O)CCC(=O)NCCCNC(=O)CC[C@@H](C)[C@H]5CC[C@H]6[C@@H]7[C@H](O)C[C@@H]8C[C@H](OC(c9ccccc9)c9ccccc9)CC[C@]8(C)[C@H]7C[C@H](O)[C@]56C)CC[C@]4(C)[C@H]3C[C@H](O)[C@]12C [Example 170]	14	25		
C[C@H](CCC(=O)NCCS(=O)(=O)O)[C@H]1CC[C@H]2[C@@H]3[C@H](O)C[C@@H]4C[C@@H](OCCNC(=O)CCC(=O)NCCCNC(=O)CC[C@@H](C)[C@H]5CC[C@H]6[C@@H]7[C@H](O)C[C@@H]8C[C@H](OC(c9ccccc9)c9ccccc9)CC[C@]8(C)[C@H]7C[C@H](O)[C@]56C)CC[C@]4(C)[C@H]3C[C@H](O)[C@]12C [Example 527]	10	20		
C[C@H](CCC(=O)O)[C@H]1CC[C@H]2[C@@H]3[C@H](O)C[C@@H]4C[C@@H](OCCNC(=O)CCC(=O)NCCCNC(=O)CC[C@@H](C)[C@H]5CC[C@H]6[C@@H]7[C@H](O)C[C@@H]8C[C@H](OCc9ccccc9)CC[C@]8(C)[C@H]7C[C@H](O)[C@]56C)CC[C@]4(C)[C@H]3CC[C@]12C [Example 191]	29	58		
C[C@H](CCC(=O)NCC(=O)O)[C@H]1CC[C@H]2[C@@H]3[C@H](O)C[C@@H]4C[C@@H](OCCNC(=O)CCC(=O)NCCCNC(=O)CC[C@@H](C)[C@H]5CC[C@H]6[C@@H]7[C@H](O)C[C@@H]8C[C@H](OC(c9ccccc9)c9ccccc9)CC[C@]8(C)[C@H]7C[C@H](O)[C@]56C)CC[C@]4(C)[C@H]3C[C@H](O)[C@]12C [Example 528]	16	26		
C[C@H](CCC(=O)NCCS(=O)(=O)O)[C@H]1CC[C@H]2[C@@H]3[C@H](O)C[C@@H]4C[C@@H](OCCNC(=O)CCC(=O)NCCCNC(=O)CC[C@@H](C)[C@H]5CC[C@H]6[C@@H]7[C@H](O)C[C@@H]8C[C@H](OCc9ccccc9)CC[C@]8(C)[C@H]7C[C@H](O)[C@]56C)CC[C@]4(C)[C@H]3CC[C@]12C [191 (taurine conj.)]			18	14
C[C@H](CCC(=O)NCCO[C@H]1CC[C@@]2(C)[C@@H](C1)C[C@@H](O)[C@@H]1[C@@H]2C[C@H](O)[C@]2(C)[C@@H]([C@H](C)CCC(=O)NCCS(=O)(=O)O)CC[C@@H]12)[C@H]1CC[C@H]2[C@@H]3[C@H](O)C[C@@H]4C[C@H](OCc5ccccc5)CC[C@]4(C)[C@H]3C[C@H](O)[C@]12C [369 (taurine conj.)]			50	18
C[C@H](CCC(=O)NCC(=O)O)[C@H]1CC[C@H]2[C@@H]3[C@H](O)C[C@@H]4C[C@@H](OCCNC(=O)CCC(=O)NCCCNC(=O)CC[C@@H](C)[C@H]5CC[C@H]6[C@@H]7[C@H](O)C[C@@H]8C[C@H](OCc9ccccc9)CC[C@]8(C)[C@H]7C[C@H](O)[C@]56C)CC[C@]4(C)[C@H]3CC[C@]12C [191 (glycine conj.)]			27	18
C[C@H](CCC(=O)O)[C@H]1CC[C@H]2[C@@H]3[C@H](O)C[C@@H]4C[C@@H](OCCNC(=O)CCC(=O)NCCO[C@H]5CC[C@@]6(C)[C@@H](C5)C[C@@H](O)[C@@H]5[C@@H]6C[C@H](O)[C@]6(C)[C@@H]([C@H](C)CCC(=O)O)CC[C@@H]56)CC[C@]4(C)[C@H]3C[C@H](O)[C@]12C [Example 532]	10	30		
